Test results reported in patent US8008279B2, “Compound—827” (AstraZeneca AB, priority 2007, dated 2011).

Target: T1, rhuman cathepsin K (Homo sapiens, UniProt P43235)
T1 sequence (P43235 115-329): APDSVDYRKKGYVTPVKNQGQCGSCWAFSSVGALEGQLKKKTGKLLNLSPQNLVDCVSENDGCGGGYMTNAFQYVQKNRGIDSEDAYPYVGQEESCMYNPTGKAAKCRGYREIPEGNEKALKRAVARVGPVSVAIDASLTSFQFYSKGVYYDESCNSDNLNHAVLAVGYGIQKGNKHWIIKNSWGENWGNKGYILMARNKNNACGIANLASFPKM
Assay: Assay for identification of Cathepsin K inhibitors (QFRET, cleavage of Z-Phe-Arg-AMC)
Assay type: biochemical
Settings: 0.5 nM rhuman cathepsin K, Z-Phe-Arg-AMC substrate, 30 min pre-incubation, 1 h incubation at room temperature, mean of two separate occasions; for IC50: read-out: CatK FRET Mean pIC50 (converted)
Description: 0.5 nM [final] rhuman cathepsin K in phosphate buffer was added to a 384-well black microtitre plate containing investigative compounds. The enzyme and compound were pre-incubated at room temperature for 30 minutes before the addition of […] [final] Z-Phe-Arg-AMC synthetic substrate in phosphate buffer. The plates were covered and incubated for 1 h at room temperature, protected from light. Following the incubation the reaction was stopped with 7.5% [final]acetic acid. Relative fluorescence was measured using the Ultra plate reader at a wavelength of 360 nm excitation and 425 nm emission.
Data was corrected for background fluorescence (minimum controls without enzyme).

Compound | IC50 | CatK FRET Mean pIC50
COCCn1c2c(c3ccccc31)CN(C(=O)[C@@H]1CCCC[C@H]1C(=O)NC1(C#N)CC1)CC2 [Example 29, (1R,2R)-N-(1-cyanocyclopropyl)-2-[(5-methoxyethyl-1,3,4,5-tetrahydro-2H-pyrido[4,3-b]indol-2-yl)carbonyl]cyclohexanecarboxamide] | 3.89 nM | 
COC(=O)Cn1c2c(c3ccccc31)CN(C(=O)[C@@H]1CCCC[C@H]1C(=O)NC1(C#N)CC1)CC2 [Example 26, (1R,2R)-N-(1-cyanocyclopropyl)-2-[(5-methoxycarbonylmethyl-1,3,4,5-tetrahydro-2H-pyrido[4,3-b]indol-2-yl)carbonyl]cyclohexanecarboxamide] | 2.85 nM | 
N#CC1(NC(=O)[C@@H]2CCCC[C@H]2C(=O)N2CCc3[nH]c4c(OC(F)(F)F)cccc4c3C2)CC1 [Example 24, (1R,2R)-N-(1-cyanocyclopropyl)-2-{[6-(trifluoromethoxy)-1,3,4,5-tetrahydro-2H-pyrido[4,3-b]indol-2-yl]carbonyl}cyclohexanecarboxamide] | 1.88 nM | 
N#Cc1cccc2c3c([nH]c12)CCN(C(=O)[C@@H]1CCCC[C@H]1C(=O)NC1(C#N)CC1)C3 [Example 20, (1R,2R)-N-(1-cyanocyclopropyl)-2-[(6-cyano-1,3,4,5-tetrahydro-2H-pyrido[4,3-b]indol-2-yl)carbonyl]cyclohexanecarboxamide] | 1.91 nM | 
N#CC1(NC(=O)[C@@H]2CCCC[C@H]2C(=O)N2CCc3oc4ncccc4c3C2)CC1 [Example 41, (1R,2R)-2-(7,8-Dihydro-5H-furo[2,3-b:4,5-c′]dipyridine-6-carbonyl)-cyclohexanecarboxylic acid (1-cyano-cyclopropyl)-amide] | 6.44 nM | 
N#CC1(NC(=O)[C@@H]2CCCC[C@H]2C(=O)N2CCc3oc4ccccc4c3C2)CC1 [Example 23, (1R,2R)-N-(1-cyanocyclopropyl)-2-[(benzofuro[3,2-c]-1,2,3,4-tetrahydropyridyl)carbonyl]cyclohexanecarboxamide] | 2.24 nM | 
CN(C)Cc1ccc2[nH]c3c(c2c1)CN(C(=O)[C@@H]1CCCC[C@H]1C(=O)NC1(C#N)CC1)CC3 [Example 15, (1R,2R)-N-(1-cyanocyclopropyl)-2-({8-[(dimethylamino)methyl]-1,3,4,5-tetrahydro-2H-pyrido[4,3-b]indol-2-yl}carbonyl)cyclohexanecarboxamide] | 8.91 nM | 
N#CC1(NC(=O)[C@@H]2CCCC[C@H]2C(=O)N2CCc3[nH]c4c(OCCN5CCOCC5)cccc4c3C2)CC1 [Example 37, (1R,2R)-N-(1-cyanocyclopropyl)-2-(6-(2-morpholinoethoxy)-2,3,4,5-tetrahydro-1H-pyrido[4,3-b]indole-2-carbonyl)cyclohexanecarboxamide] | 3.2 nM | 
CS(=O)(=O)n1c2c(c3ccccc31)CN(C(=O)[C@@H]1CCCC[C@H]1C(=O)NC1(C#N)CC1)CC2 [Example 40, (1R,2R)-N-(1-cyanocyclopropyl)-2-[(5-methanesulphonyl-1,3,4,5-tetrahydro-2H-pyrido[4,3-b]indol-2-yl)carbonyl]cyclohexanecarboxamide] | 10.8 nM | 
N#CC1(NC(=O)[C@@H]2CCCC[C@H]2C(=O)N2CCc3[nH]c4cccc(F)c4c3C2)CC1 [Example 9, (1R,2R)-N-(1-cyanocyclopropyl)-2-[(9-fluoro-1,3,4,5-tetrahydro-2H-pyrido[4,3-b]indol-2-yl)carbonyl]cyclohexanecarboxamide] | 49.9 nM | 
(1R,2R)-N-(1-cyanocyclopropyl)-2-[(6-methyl-1,3,4,5-tetrahydro-2H-pyrido[4,3-b]indol-2-yl)carbonyl]cyclohexanecarboxamide [Example 6] |  | 8.553
N#CC1(NC(=O)[C@@H]2CCCC[C@H]2C(=O)N2CCc3c(c4ccccc4n3CC3CC3)C2)CC1 [Example 28, (1R,2R)-N-(1-cyanocyclopropyl)-2-[(5-cyclopropylmethyl-1,3,4,5-tetrahydro-2H-pyrido[4,3-b]indol-2-yl)carbonyl]cyclohexanecarboxamide] | 3.45 nM | 
N#CC1(NC(=O)[C@@H]2CCCC[C@H]2C(=O)N2CCc3[nH]c4c5c(ccc4c3C2)OC(F)(F)O5)CC1 [Example 44, (1R,2R)-N-(1-cyanocyclopropyl)-2-(2,2-difluoro-7,8,9,10-tetrahydro-6H-[1,3]dioxolo[4,5-g]pyrido[4,3-b]indole-7-carbonyl)cyclohexanecarboxamide] | 2.13 nM | 
N#CC1(NC(=O)[C@@H]2CCCC[C@H]2C(=O)N2CCc3[nH]c4c(Cl)cccc4c3C2)CC1 [Example 19, (1R,2R)-2-[(6-chloro-1,3,4,5-tetrahydro-2H-pyrido[4,3-b]indol-2-yl)carbonyl]-N-(1-cyanocyclopropyl)cyclohexanecarboxamide] | 1.78 nM | 
N#CC1(NC(=O)[C@@H]2CCCC[C@H]2C(=O)N2CCc3[nH]c4c(OCCN5CCCC5)cccc4c3C2)CC1 [Example 38, (1R,2R)-N-(1-cyanocyclopropyl)-2-(6-(2-(pyrrolidin-1-yl)ethoxy)-2,3,4,5-tetrahydro-1H-pyrido[4,3-b]indole-2-carbonyl)cyclohexanecarboxamide] | 1.64 nM | 
CS(=O)(=O)c1cccc2c3c([nH]c12)CCN(C(=O)[C@@H]1CCCC[C@H]1C(=O)NC1(C#N)CC1)C3 [Example 31, (1R,2R)-N-(1-cyanocyclopropyl)-2-{[6-(methylsulfonyl)-1,3,4,5-tetrahydro-2H-pyrido[4,3-b]indol-2-yl]carbonyl}cyclohexanecarboxamide] | 17.4 nM | 
N#CC1(NC(=O)[C@@H]2CCCC[C@H]2C(=O)N2CCc3[nH]c4ccc(Br)cc4c3C2)CC1 [Example 5, (1R,2R)-2-[(8-bromo-1,3,4,5-tetrahydro-2H-pyrido[4,3-b]indol-2-yl)carbonyl]-N-(1-cyanocyclopropyl)cyclohexanecarboxamide] | 6.38 nM | 

Further lines, results first:

IC50 | CatK FRET Mean pIC50 | Compound
78.5 nM |  | CS(=O)(=O)c1ccc2[nH]c3c(c2c1)CN(C(=O)[C@@H]1CCCC[C@H]1C(=O)NC1(C#N)CC1)CC3 [Example 16, (1R,2R)-N-(1-cyanocyclopropyl)-2-{[8-(methylsulfonyl)-1,3,4,5-tetrahydro-2H-pyrido[4,3-b]indol-2-yl]carbonyl}cyclohexanecarboxamide]
2.84 nM |  | Cn1c2c(c3cc(F)ccc31)CN(C(=O)[C@@H]1CCCC[C@H]1C(=O)NC1(C#N)CC1)CC2 [Example 12, (1R,2R)-N-(1-cyanocyclopropyl)-2-[(8-fluoro-5-methyl-1,3,4,5-tetrahydro-2H-pyrido[4,3-b]indol-2-yl)carbonyl]cyclohexanecarboxamide]
1.3 nM |  | N#CC1(NC(=O)[C@@H]2CCCC[C@H]2C(=O)N2CCc3[nH]c4ccccc4c3C2)CC1 [Example 4, (1R,2R)-N-(1-cyanocyclopropyl)-2-(1,3,4,5-tetrahydro-2H-pyrido[4,3-b]indol-2-ylcarbonyl)cyclohexanecarboxamide]
1.03 nM |  | N#CC1(NC(=O)[C@@H]2CCCC[C@H]2C(=O)N2CCc3[nH]c4c(O)cccc4c3C2)CC1 [Example 33, (1R,2R)-N-(1-cyanocyclopropyl)-2-[(6-hydroxy-1,3,4,5-tetrahydro-2H-pyrido[4,3-b]indol-2-yl)carbonyl]cyclohexanecarboxamide]
0.658 nM |  | COc1cccc2c3c([nH]c12)CCN(C(=O)[C@@H]1CCCC[C@H]1C(=O)NC1(C#N)CC1)C3 [Example 17, (1R,2R)-N-(1-cyanocyclopropyl)-2-[(6-methoxy-1,3,4,5-tetrahydro-2H-pyrido[4,3-b]indol-2-yl)carbonyl]cyclohexanecarboxamide]
1.46 nM |  | Cn1c2c(c3cccnc31)CN(C(=O)[C@@H]1CCCC[C@H]1C(=O)NC1(C#N)CC1)CC2 [Example 21, (1R,2R)-N-(1-cyanocyclopropyl)-2-[(9-methyl-5,7,8,9-tetrahydro-6H-pyrrolo[2,3-b:4,5-c′]dipyridin-6-yl)carbonyl]cyclohexanecarboxamide]
42.1 nM |  | N#CC1(NC(=O)[C@@H]2CCCC[C@H]2C(=O)N2CCc3[nH]c4ccc(C(F)(F)F)cc4c3C2)CC1 [Example 7, (1R,2R)-N-(1-cyanocyclopropyl)-2-{[8-(trifluoromethyl)-1,3,4,5-tetrahydro-2H-pyrido[4,3-b]indol-2-yl]carbonyl}cyclohexanecarboxamide]
3.67 nM |  | CC(C)c1ccc2[nH]c3c(c2c1)CN(C(=O)[C@@H]1CCCC[C@H]1C(=O)NC1(C#N)CC1)CC3 [Example 11, (1R,2R)-N-(1-cyanocyclopropyl)-2-[(8-isopropyl-1,3,4,5-tetrahydro-2H-pyrido[4,3-b]indol-2-yl)carbonyl]cyclohexanecarboxamide]
2.24 nM |  | N#CC1(NC(=O)[C@@H]2CCCC[C@H]2C(=O)N2CCc3[nH]c4c(Br)cccc4c3C2)CC1 [Example 13, (1R,2R)-2-[(6-bromo-1,3,4,5-tetrahydro-2H-pyrido[4,3-b]indol-2-yl)carbonyl]-N-(1-cyanocyclopropyl)cyclohexanecarboxamide]
0.849 nM |  | N#CC1(NC(=O)[C@@H]2CCCC[C@H]2C(=O)N2CCc3[nH]c4ccc(F)cc4c3C2)CC1 [Example 1, (1R,2R)-N-(1-cyanocyclopropyl)-2-[(8-fluoro-1,3,4,5-tetrahydro-2H-pyrido[4,3-b]indol-2-yl)carbonyl]cyclohexanecarboxamide]
